Results on one compound are retold here after patent publication US20240358748A1, “AMORPHOUS DISPERSION OF FERRIC MALTOL AND THE PREPARATION PROCESS THEREOF” (Indena S.P.A., priority 2021, published 2024).

Each structure is given as a SMILES string.

The data set in a line: Accelerated stability study (solid form checked by X-ray powder diffraction). It is filed as physicochemical. To be noted: after 12 days at room temperature and relative humidity of 75%±5%. The protocol: The X-ray diffraction pattern was recorded on a Bruker D2-Phaser diffractometer. The X-ray generator was set to 30 kV and 10 mA, using Cuk as radiation source. The sample was prepared in a sample holder and irradiated for an irradiation length of 10 mm. The data were recorded between 2 and 50 2θ degrees every 0.02 2θ degrees, with a recording time of 3 seconds per 2θ degree.
The amorphous solid dispersion prepared according to Example 1, and ferric maltol in amorphous form, prepared according to the procedure reported in Example 1 but without the addition of Soluplus®, underwent an accelerated stability study.

In the case of `Cc1occc(=O)c1[O-].Cc1occc(=O)c1[O-].Cc1occc(=O)c1[O-].[Fe+3]` [ferric maltol in amorphous form, 3-hydroxy-2-methyl-4H-pyran-4-one: iron (III) (3:1)], the “solid form after storage (X-ray diffractogram)” value is on record as “attributable to ferric maltol Form I”. For the same compound, the “solid form after storage (X-ray diffractogram)” value (listed as ferric maltol) is on record as “tends to be converted, at least partly, to a crystalline structure”.
